Structures can show the parent of a compound that is named as a salt.
Columns and labels:
Type in all cases: functional, cell-based
[1] = target: T1, Solute carrier family 22 member 11 (Homo sapiens, UniProt Q9NSA0); experiment: TP_TRANSPORTER: uptake in OAT4-S2 cells; details: mouse
T1 sequence (Q9NSA0 whole entry): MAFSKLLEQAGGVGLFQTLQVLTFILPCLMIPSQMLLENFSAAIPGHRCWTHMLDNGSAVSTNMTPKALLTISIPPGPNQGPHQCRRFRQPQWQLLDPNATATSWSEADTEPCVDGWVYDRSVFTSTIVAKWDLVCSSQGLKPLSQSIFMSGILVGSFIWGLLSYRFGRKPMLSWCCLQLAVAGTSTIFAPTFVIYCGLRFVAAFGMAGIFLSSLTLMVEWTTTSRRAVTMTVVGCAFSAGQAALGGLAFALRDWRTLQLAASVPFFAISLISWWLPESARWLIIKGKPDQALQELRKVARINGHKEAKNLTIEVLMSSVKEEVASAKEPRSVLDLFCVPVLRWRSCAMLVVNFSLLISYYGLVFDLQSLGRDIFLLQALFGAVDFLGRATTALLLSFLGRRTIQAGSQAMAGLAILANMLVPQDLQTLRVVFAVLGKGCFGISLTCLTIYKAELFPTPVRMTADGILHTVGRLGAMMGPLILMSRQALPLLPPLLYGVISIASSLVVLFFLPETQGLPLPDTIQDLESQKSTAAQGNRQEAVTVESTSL

[2] = target: T1, Solute carrier family 22 member 11; experiment: TP_TRANSPORTER: inhibition of E1S uptake (E1S: 5 uM, indoxyl sulfate:500 uM) in S2 cells expressing human-OAT4
[3] = target: T2, Organic anion transporter 3 (Homo sapiens, UniProt Q8TCC7); experiment: TP_TRANSPORTER: uptake in OAT3-S2 cells; details: mouse
T2 sequence (Q8TCC7 whole entry): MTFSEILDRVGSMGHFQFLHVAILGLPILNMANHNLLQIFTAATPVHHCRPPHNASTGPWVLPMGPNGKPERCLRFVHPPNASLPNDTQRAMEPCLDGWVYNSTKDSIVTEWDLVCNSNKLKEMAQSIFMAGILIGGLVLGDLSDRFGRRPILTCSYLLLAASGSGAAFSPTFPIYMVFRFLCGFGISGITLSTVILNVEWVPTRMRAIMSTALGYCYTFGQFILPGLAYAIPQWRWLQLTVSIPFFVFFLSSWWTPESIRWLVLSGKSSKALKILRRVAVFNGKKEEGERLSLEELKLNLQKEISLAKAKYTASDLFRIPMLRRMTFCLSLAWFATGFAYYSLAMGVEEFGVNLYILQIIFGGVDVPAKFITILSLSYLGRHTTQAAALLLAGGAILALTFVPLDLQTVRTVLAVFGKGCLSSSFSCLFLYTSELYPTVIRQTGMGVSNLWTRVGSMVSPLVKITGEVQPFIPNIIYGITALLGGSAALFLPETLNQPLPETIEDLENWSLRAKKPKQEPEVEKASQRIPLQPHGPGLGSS

[4] = target: T1, Solute carrier family 22 member 11; experiment: TP_TRANSPORTER: uptake&inhibition of estrone sulfate in OAT4-S2 cells

Activity [1]: substrate [] | Ki [2]: 181 µM | Activity [3]: substrate [] | Ki [4]: 181 µM
SMILES: O=S(=O)(O)Oc1c[nH]c2ccccc12 [INDOXYL SULFATE]

Reference: ChEMBL document CHEMBL2073944 (Eur J Pharmacol, 2003)
